From patent US8906928B2, “Substituted pyrazolo-pyrrolo-pyridine-dione compounds” (ArQule, Inc., priority 2009, dated 2014)

How the values were obtained:
Type in all cases: cell-based
DLD-1 = experiment: MTS assay (cell growth inhibition), DLD-1; details: DLD-1 cells, 72 hours incubation with test compound; concentration not given
Procedure: (§1) Cells were maintained at 37° C., 5% CO2 in DMEM media supplemented with 1% fetal bovine serum, penicillin/streptomycin and fungizone (Invitrogen). Cells were seeded into 96-well tissue culture plates at 3000 per well and cultured at 37° C. for 18 hours. Test compounds were dissolved and diluted to 300× in DMSO then diluted 1:40 in DMEM. Cells were incubated with test compounds for 72 hours followed by incubation with tetrazolium compound (3-(4,5-dimethylthiazol-2-yl)-5-(3-carboxymethoxyphenyl)-2-(4-sulfophenyl)-2H-tetrazolium, inner salt; MTS) and the electron coupling reagent, phenazine methosulfate (PMS) for 4 hours. […] The ability of compounds to inhibit cell growth in this assay is correlated with the reduction of dehydrogenase enzyme activity found in metabolically active cells. The measurement of the absorbance of the formazan was assessed using an ENVISION™ (Perkin Elmer) microplate reader at 492 nm. The calculated IC50 value is the concentration of the test compound that causes a 50% decrease in the absorbance.

Kato III = experiment: MTS assay (cell growth inhibition), Kato III; details: Kato III cells, 72 hours incubation with test compound; concentration not given
Procedure: as §1

MDA-MB = experiment: MTS assay (cell growth inhibition), MDA-MB; details: MDA-MB cells, 72 hours incubation with test compound; concentration not given
Procedure: as §1

NCI-H1299 = experiment: MTS assay (cell growth inhibition), NCI-H1299; details: NCI-H1299 cells, 72 hours incubation with test compound; concentration not given
Procedure: as §1

PACA-2 = experiment: MTS assay (cell growth inhibition), PACA-2; details: PACA-2 cells, 72 hours incubation with test compound; concentration not given
Procedure: as §1

PC-3 = experiment: MTS assay (cell growth inhibition), PC-3; details: PC-3 cells, 72 hours incubation with test compound; concentration not given
Procedure: as §1

## Cc1ccc(Cl)c(CN2C(=O)c3cnc4[nH]ncc4c3C2=O)c1F [Example 19, 7-(6-chloro-2-fluoro-3-methylbenzyl)pyrazolo[3,4-b]pyrrolo[3,4-d]pyridine-6,8(3H,7H)-dione]
DLD-1
  MTS CELL KILL DATA (% INHIBITION) DLD-1: C (C = <50% INHIBITION)
Kato III
  MTS CELL KILL DATA (% INHIBITION) Kato III: A (A = 80-100% INHIBITION)
MDA-MB
  MTS CELL KILL DATA (% INHIBITION) MDA-MB: B (B = 50-79% INHIBITION)
NCI-H1299
  MTS CELL KILL DATA (% INHIBITION) NCI-H1299: C (C = <50% INHIBITION)
PACA-2
  MTS CELL KILL DATA (% INHIBITION) PACA-2: C (C = <50% INHIBITION)
PC-3
  MTS CELL KILL DATA (% INHIBITION) PC-3: A (A = 80-100% INHIBITION)

## O=C1c2cnc3[nH]ncc3c2C(=O)N1Cc1ccc(F)c(F)c1F [Example 20, 7-(2,3,4-trifluorobenzyl)pyrazolo[3,4-b]pyrrolo[3,4-d]pyrindine-6,8(3H,7H)-dione]
DLD-1
  MTS CELL KILL DATA (% INHIBITION) DLD-1: C (C = <50% INHIBITION)
Kato III
  MTS CELL KILL DATA (% INHIBITION) Kato III: C (C = <50% INHIBITION)
MDA-MB
  MTS CELL KILL DATA (% INHIBITION) MDA-MB: A (A = 80-100% INHIBITION)
NCI-H1299
  MTS CELL KILL DATA (% INHIBITION) NCI-H1299: C (C = <50% INHIBITION)
PACA-2
  MTS CELL KILL DATA (% INHIBITION) PACA-2: C (C = <50% INHIBITION)
PC-3
  MTS CELL KILL DATA (% INHIBITION) PC-3: A (A = 80-100% INHIBITION)

## CN(C)c1cccc(CN2C(=O)c3cnc4[nH]ncc4c3C2=O)c1 [Example 23]
DLD-1
  MTS CELL KILL DATA (% INHIBITION) DLD-1: C (C = <50% INHIBITION)
Kato III
  MTS CELL KILL DATA (% INHIBITION) Kato III: C (C = <50% INHIBITION)
MDA-MB
  MTS CELL KILL DATA (% INHIBITION) MDA-MB: C (C = <50% INHIBITION)
NCI-H1299
  MTS CELL KILL DATA (% INHIBITION) NCI-H1299: C (C = <50% INHIBITION)
PACA-2
  MTS CELL KILL DATA (% INHIBITION) PACA-2: C (C = <50% INHIBITION)
PC-3
  MTS CELL KILL DATA (% INHIBITION) PC-3: C (C = <50% INHIBITION)

## O=C1c2cnc3[nH]ncc3c2C(=O)N1CCOc1ccccc1Cl [Example 25, 7-[2-(2-chlorophenoxy)ethyl]pyrazolo[3,4-b]pyrrolo[3,4-d]pyridine-6,8(3H,7H)-dione]
DLD-1
  MTS CELL KILL DATA (% INHIBITION) DLD-1: C (C = <50% INHIBITION)
Kato III
  MTS CELL KILL DATA (% INHIBITION) Kato III: C (C = <50% INHIBITION)
MDA-MB
  MTS CELL KILL DATA (% INHIBITION) MDA-MB: A (A = 80-100% INHIBITION)
NCI-H1299
  MTS CELL KILL DATA (% INHIBITION) NCI-H1299: C (C = <50% INHIBITION)
PACA-2
  MTS CELL KILL DATA (% INHIBITION) PACA-2: C (C = <50% INHIBITION)
PC-3
  MTS CELL KILL DATA (% INHIBITION) PC-3: A (A = 80-100% INHIBITION)

## Cc1ccc2c(c1)N(CCN1C(=O)c3cnc4[nH]ncc4c3C1=O)C(C)(C)CC2C (stereo not drawn) [Example 29, 7-[2-(2,2,4,7-tetramethyl-3,4-dihydroquinolin-1(2H)-yl)ethyl]pyrazolo[3,4-b]pyrrolo[3,4-d]pyridine-6,8(3H,7H)-dione]
DLD-1
  MTS CELL KILL DATA (% INHIBITION) DLD-1: C (C = <50% INHIBITION)
Kato III
  MTS CELL KILL DATA (% INHIBITION) Kato III: C (C = <50% INHIBITION)
MDA-MB
  MTS CELL KILL DATA (% INHIBITION) MDA-MB: A (A = 80-100% INHIBITION)
NCI-H1299
  MTS CELL KILL DATA (% INHIBITION) NCI-H1299: C (C = <50% INHIBITION)
PACA-2
  MTS CELL KILL DATA (% INHIBITION) PACA-2: A (A = 80-100% INHIBITION)
PC-3
  MTS CELL KILL DATA (% INHIBITION) PC-3: A (A = 80-100% INHIBITION)

## O=C1c2cnc3[nH]ncc3c2C(=O)N1CCSc1nc2ccccc2s1 [Example 32, 7-[2-(1,3-benzothiazol-2-ylthio)ethyl]pyrazolo[3,4-b]pyrrolo[3,4-d]pyridine-6,8(3H,7H)-dione]
DLD-1
  MTS CELL KILL DATA (% INHIBITION) DLD-1: C (C = <50% INHIBITION)
Kato III
  MTS CELL KILL DATA (% INHIBITION) Kato III: B (B = 50-79% INHIBITION)
MDA-MB
  MTS CELL KILL DATA (% INHIBITION) MDA-MB: C (C = <50% INHIBITION)
NCI-H1299
  MTS CELL KILL DATA (% INHIBITION) NCI-H1299: C (C = <50% INHIBITION)
PACA-2
  MTS CELL KILL DATA (% INHIBITION) PACA-2: C (C = <50% INHIBITION)
PC-3
  MTS CELL KILL DATA (% INHIBITION) PC-3: A (A = 80-100% INHIBITION)

## COc1cc(Cl)ccc1CN1C(=O)c2cnc3[nH]ncc3c2C1=O [Example 33, 7-(4-chloro-2-methoxybenzyl)pyrazolo[3,4-b]pyrrolo[3,4-d]pyridine-6,8(3H,7H)-dione]
DLD-1
  MTS CELL KILL DATA (% INHIBITION) DLD-1: C (C = <50% INHIBITION)
Kato III
  MTS CELL KILL DATA (% INHIBITION) Kato III: C (C = <50% INHIBITION)
MDA-MB
  MTS CELL KILL DATA (% INHIBITION) MDA-MB: A (A = 80-100% INHIBITION)
NCI-H1299
  MTS CELL KILL DATA (% INHIBITION) NCI-H1299: C (C = <50% INHIBITION)
PACA-2
  MTS CELL KILL DATA (% INHIBITION) PACA-2: C (C = <50% INHIBITION)
PC-3
  MTS CELL KILL DATA (% INHIBITION) PC-3: C (C = <50% INHIBITION)
